This note sets out measurements from patent publication US10829528B2, “Therapeutic agents for neurological and psychiatric disorders” (VIB VZW, priority 2016, dated 2020).

Where no end group is shown, it is not given here.

Experiment [1] has as its system primary hippocampal neurons. Put plainly: mEPSCs & mIPSCs in cultured primary hippocampal neurons (wild type). The conditions noted are these: for effect on mEPSC frequency (in words) / effect on mIPSC frequency (in words): 250 nM each. It counts as cell-based, mouse. On the procedure: mEPSCs & mIPSCs are measured in cultured primary hippocampal neurons at baseline and following acute application of agonists. Excitatory terminals selectively express the sushi domain-containing GABABR1a isoform (ref18), where it functions to inhibit neurotransmitter release (ref 24). Acute exposure of primary hippocampal neurons from wild type mice to 30μM baclofen, a GABABR agonist, or 250 nM sAPPα (Fc cleaved) reduces the frequency of miniature excitatory postsynaptic currents (mEPSCs) by 68% (FIG. 8 a,b) and 39% (FIG. 8 c,d), respectively, with no effect on mEPSC amplitude (FIG. 8e). […] Acute application of 30 μM baclofen or 250 nM purified sAPPα reduces the frequency of miniature inhibitory postsynaptic currents (mIPSCs) by 63% (FIG. 8a, 9a) and 44% (FIG. 8c, 9b), respectively, which is blocked by pretreatment with the GABABR antagonist CGP55845 (CGP, 5 μM) (FIG. 8f, 9d). Application of sAPPα causes a minor (14%) reduction on mIPSC amplitude (FIG. 8e, 9c). […] Baclofen is known to reduce the frequencies of mEPSCs and mIPSCs, which we have also confirmed. […] To confirm that the agonist is acting through GABABR1a, the agonist is tested in cultures with shRNA mediated knockdown of GABABR1a or antisense oligonucleotides mediated exon skipping of the exon encoding the Sushi domain 1 of GABABR1a. Antagonists are tested by treatment in combination with the agonist, Baclofen. […] As an antagonist we test an antibody against the sushi domain sequence (SEQ ID No: 5): […] SWTDMDTPSRCV. An antibody specifically binding to this domain which acts as an antagonist increases the frequencies of mEPSCs and mIPSCs. sAPPα also reduces mEPSC and mIPSC frequency in App/Aplp1 dKO cultures (FIG. 8j, 9f), excluding the possibility that sAPPα interferes with a complex of full-length APP and GABABR1 to exert its effect on GABABR signaling.
Hippocampal neurons were cultured from E18 C57/B16 wild type mice or APP/APLP1 dKO mice (provided by Ulrike Muller46) and plated on poly-D-lysine (Millipore), and laminin (Invitrogen) coated coverslips (Nalge Nunc International). Neurons were maintained in Neurobasal medium (Invitrogen) supplemented with B27, glucose, glutamax, penicillin/streptomycin (Invitrogen) and 25 μM β-mercaptoethanol.
Single neurons from wild type or APP/APLP1 null mutant embryos (E18) were recorded within the large neuronal network at DIV 12-15. The intracellular whole-cell pipette medium contained (in mM): 136 KCl, 18 HEPES, 4 Na-ATP, 4.6 MgCl2, 15 Creatine Phosphate, 1 EGTA and 50 U/ml Phospocreatine Kinase (300 mOsm, pH 7.30). Regular external solution contained 2 mM/2 mM Ca2+/Mg2+(in mM: 140 NaCl, 2.4 KCl, 2 CaCl2), 2 MgCl2, 10 HEPES, 14 Glucose (300 mOsm, pH 7.30)) and TTX (1 μM). Pharmacological reagents (30 μM baclofen, 5 μM CGP), sAPLP1, full length sAPP and sAPP derived peptides (250 nM each) were bath applied (dissolved in external medium described above) using a separate gravity driven application inlet. Recordings were done in whole cell voltage clamp configuration at −70 mV with a double EPC-10 amplifier (HEKA Elektronik) under control of Patchmaster v2×32 software (HEKA Elektronik). Currents were low-pass filtered at 3 kHz and stored at 20 kHz. Patch pipettes were pulled from borosilicate glass using a multi-step puller (P-1000; Sutter Instruments). Pipette resistance ranged from 3 to 5 MΩ and was compensated to 75-80%. Only cells with series resistances <15 MΩ were included in analysis. All recordings were done at room temperature. Spontaneous events were detected using Mini Analysis program (Synaptosoft). mEPSCs and mIPSCs were separated on the basis of their distinct decay kinetics, using a threshold of 5 ms47. Baseline was determined from an average of 60 sec of recordings prior to protein or drug treatment. Effect of treatment was determined from an average of 30 sec recordings after 140 sec of protein or drug treatment.

Experiment [2] relates to Schaffer collateral (SC) synapses in mouse hippocampus. The experiment in a line: fEPSP field recordings at Schaffer collateral synapses in hippocampal slices. The format is cell-based. On the procedure:
We assessed the effect of sAPPα on the synaptic properties of Schaffer collateral (SC) synapses in mouse hippocampus. […] As change in probability of neurotransmitter release inversely correlates with a change in short-term facilitation, we applied a burst of 5 stimuli at 3 different frequencies (20, 50, and 100 Hz) to induce short-term facilitation at the SC. […] Preincubation with the GABABR antagonist CGP54626 (CGP, 10 μM) for 20 min before the incubation with sAPPα blocked its effects on the peak amplitude of the fESPS and the input/output slopes (FIG. 10f-g). Accordingly, CGP occluded sAPPα-induced augmentation of short-term facilitation at 20, 50, and 100 Hz burst frequencies (FIG. 10h-j).
On the day of recording the brain of a 2-month-old Balb/c male mouse was quickly removed and 400 μm-thick horizontal slices were prepared in an ice-cold oxygenated buffer containing (in mM): sucrose, 182; KCl, 2.5; MgSO4, 2; NaH2PO4, 1.25; NaHCO3, 25; CaCl2), 0.8; MgCl2, 5; glucose, 25; ascorbate, 1; HEPES, 20. The slicing procedure was performed using a Leica VT1200 vibrating microtome. Slices were then transferred to a submerged recovery chamber at room temperature containing oxygenated (95% 02 and 5% C02) storage artificial cerebrospinal fluid (ACSF) for 30 min before the incubations (see below). The storage ACSF contained, in mM: NaCl, 100; KCl, 2.5; MgSO4, 2; NaH2PO4, 1.25; NaHCO3, 25; CaCl2), 1.2; MgCl2, 3; glucose, 20; ascorbate, 1; sodium pyruvate,3 and HEPES, 20. The slices were incubated in the incubation chambers perfused with oxygenated storage ACSF containing the experimental agents for 90 min before performing field recordings: In the incubation chamber, control slices were perfused with normal storage ACSF while sAPPα slices were perfused with storage ACSF containing 1 μM sAPPα. CGP slices were perfused with storage ACSF containing 10 μM CGP54626 (Tocris). CGP+sAPPα slices were preincubated in the chamber perfused with ACSF+CGP before being transferred into the chamber perfused with storage ACSF implemented with 10 μM CGP54626+1 μM sAPPα. All recordings were performed at 32-33° C. in a recording chamber perfused with ACSF (4 ml/min) on the stage of an Olympus BX51WI microscope equipped with IR optics and oblique illumination. Recording ACSF contains, in mM: NaCl, 129; KCl, 2.5; CaCl2), 1.2; MgCl2, 1.2; NaHCO3, 25; NaH2PO4, 1.25; glucose, 15. Stimulation of the Schaffer-collateral was delivered through a glass suction electrode (10-20 μm tip) filled with ACSF. fEPSPs were recorded using a glass pipette containing ACSF (1-2 MΩ) from proximal synapses in the CA1 stratum radiatum. Field recording experiments were analyzed using Clampfit.

In experiment [3] the test system is cultured hippocampal neurons. The experiment in a line: FM1-43 dye labeling of presynaptic vesicle recycling. It counts as cell-based, mouse. The settings on record: 1 μM sAPPα in the presence of CGP. On the procedure:
We assessed the effect of sAPPα on synaptic vesicle recycling (ref6) using the activity-dependent dye FM1-43. We measured density (D) and intensity (ΔF) of FM1-43 uptake in presynaptic vesicles turned over by stimulation of 30 action potentials (APs) at a rate of 1 Hz in cultured hippocampal neurons.
The experiments were performed in mature (15-28 days in vitro) cultures. Hippocampal neurons were imaged using a FV1000 spectral Olympus confocal microscope using a 60×1.2 NA water immersion objective. The experiments were conducted at room temperature in extracellular Tyrode solution containing (in mM): NaCl, 145; KCl, 3; glucose, 15; HEPES, 10; MgCl2, 1.2; CaCl2), 1.2; pH adjusted to 7.4 with NaOH. For FM-based imaging and analysis, activity-dependent FM1-43 (10 μM) styryl dye was used to estimate basal synaptic vesicle recycling using previously described protocol48. Briefly, action potentials were elicited by passing 50 mA constant current for 1 ms through two platinum wires, separated by ˜7 mm and close to the surface of the coverslip. The extracellular medium contained non-selective blocker of glutamate receptors (0.5 mM kynurenic acid) to block recurrent neuronal activity. 30 stimuli at 1 Hz were applied during FM1-43 loading, while 800 stimuli at 2 Hz during unloading. The fluorescence of individual synapses was determined from the difference between images obtained after staining and after destining (ΔF). Detection of signals was done using custom-written scripts in MATLAB (Mathworks) as described before48.

As for “DDSDVWWGGADTDYADG [17mer peptide, DDSDVWWGGADTDYADG]”, in experiment [1] (acute application), the “effect on mEPSC frequency (in words)” value is listed as “reduces mEPSC frequency to a similar degree as sAPPα” and the “effect on mIPSC frequency (in words)” value is “reduce mIPSC frequency to a similar extent as sAPPα”.

Take `NCC(CC(=O)O)c1ccc(Cl)cc1` (stereo not shown) [baclofen, reference compound]: in experiment [1] (30 µM), the “reduction of mEPSC frequency” value came to 68% and the “reduction of mIPSC frequency” value turned out to be 63%.

For the molecule `C[C@H](NC[C@H](O)CP(=O)(O)CC1CCCCC1)c1ccc(Cl)c(Cl)c1` [CGP54626, reference compound], the “block of sAPPα effects on peak fEPSP amplitude and input/output slopes” value in experiment [2] (10 μM preincubation for 20 min before sAPPα) is “blocked”. Moreover, the “occlusion of sAPPα-induced augmentation of short-term facilitation” value in experiment [2] (10 μM, 20, 50 and 100 Hz burst frequencies) was “occluded”. In addition, the “occlusion of the sAPPα effect on presynaptic strength” value in experiment [3] is “occluded”.

In the case of `C[C@H](NC[C@H](O)CP(=O)(O)Cc1ccccc1)c1ccc(Cl)c(Cl)c1` [CGP55845, reference compound], the “block of the reduction of mIPSC frequency” value in experiment [1] (pretreatment with antagonist 5 μM) is given as “blocked”. Further, the “block of the sAPPα effect on mEPSC frequency” value in experiment [1] (pretreatment with antagonist 5 μM, then 250 nM sAPPα) is recorded as “blocks the effect of sAPPα on mEPSC frequency”.

B1: ExD-AcD: extension domain-acidic domain fragment of APP695 (195-298aa), non-Fc protein used in ITC and functional assays (protein)
chain: SVDSADAEEDDSDVWWGGADTDYADGGEDKVVEVAEEEEVADVEEEEADDDEDVEDGDEVEEEAEEPYEEATERTTSTATTTTTTTESVEEVVRVPTTAASTPD
modifications: left off: a dimerising Fc or GST; small tags and cut ends
notes: extension domain-acidic domain fragment of APP695 (195-298aa), non-Fc protein used in ITC and functional assays
Consider B1, for which, in experiment [1] (acute application), the “effect on mEPSC frequency (in words)” value was “reduces mEPSC frequency to a similar degree as sAPPα” and the “effect on mIPSC frequency (in words)” value is listed as “reduce mIPSC frequency to a similar extent as sAPPα”.

B2: sAPLP1: soluble ectodomain of APP-like protein 1 (protein, UniProt Q03157 39-584, looked up)
extracellular domain: NLAVGSPSAAEAPGSAQVAGLCGRLTLHRDLRTGRWEPDPQRSRRCLLDPQRVLEYCRQMYPELHIARVEQAAQAIPMERWCGGTRSGRCAHPHHEVVPFHCLPGEFVSEALLVPEGCRFLHQERMDQCESSTRRHQEAQEACSSQGLILHGSGMLLPCGSDRFRGVEYVCCPPPATPNPSGMAAGDPSTRSWPLGGRAEGGEDEEEVESFPQPVDDYFVEPPQAEEEEEEEEERAPPPSSHTPVMVSRVTPTPRPTDGVDVYFGMPGEIGEHEGFLRAKMDLEERRMRQINEVMREWAMADSQSKNLPKADRQALNEHFQSILQTLEEQVSGERQRLVETHATRVIALINDQRRAALEGFLAALQGDPPQAERVLMALRRYLRAEQKEQRHTLRHYQHVAAVDPEKAQQMRFQVQTHLQVIEERMNQSLGLLDQNPHLAQELRPQIQELLLAEHLGPSELDASVPGSSSEDKGSLQPPESKDDPPVTLPKGSTDQESSSSGREKLTPLEQYEQKVNASAPRGFPFHSSDIQRDELAPSGTGVSRE
modifications: extracellular domain
Take B2: in experiment [1] (acute application), the “effect on mEPSC frequency (in words)” value is reported as “not”. The “reduction of mIPSC frequency” value in experiment [1] (acute application, 30 μM baclofen, 250 nM proteins) worked out at 17%.
